Tests used:
[1] = system: Venezuelan Equine Encephalitis virus (VEE); format: cell-based
Sindbis virus [2] = format: cell-based
Sindbis virus / NRAMP2 = Sindbis virus / NRAMP2 (Homo sapiens, UniProt P49281); format: cell-based
[3] = system: Vesicular Stomatitis Virus; format: cell-based
hNRAMP2 = assay: NRAMP2 expression (RT-PCR) in U2OS cells with iron; format: cell-based, human
Method: Cells were treated with 160 μM Ammonium Iron(III) Citrate for three days prior to and throughout the infection.
Total RNA was purified using Trizol and used for reverse transcription with random priming and MLV-RT (Invitrogen) followed by PCR using the indicated primers.

West Nile virus = format: cell-based
Ross River virus = format: cell-based; settings: iron treatment (not shown)
[4] = biological target: human Natural Resistance-Associated Macrophage Protein 2 (hNRAMP2) (human) (UniProt P49281); assay: cell-based or functional assay
Sindbis virus [5] = format: cell-based; remark: listed apart in the source

Chain of Sindbis virus / NRAMP2 (P49281 whole entry, looked up): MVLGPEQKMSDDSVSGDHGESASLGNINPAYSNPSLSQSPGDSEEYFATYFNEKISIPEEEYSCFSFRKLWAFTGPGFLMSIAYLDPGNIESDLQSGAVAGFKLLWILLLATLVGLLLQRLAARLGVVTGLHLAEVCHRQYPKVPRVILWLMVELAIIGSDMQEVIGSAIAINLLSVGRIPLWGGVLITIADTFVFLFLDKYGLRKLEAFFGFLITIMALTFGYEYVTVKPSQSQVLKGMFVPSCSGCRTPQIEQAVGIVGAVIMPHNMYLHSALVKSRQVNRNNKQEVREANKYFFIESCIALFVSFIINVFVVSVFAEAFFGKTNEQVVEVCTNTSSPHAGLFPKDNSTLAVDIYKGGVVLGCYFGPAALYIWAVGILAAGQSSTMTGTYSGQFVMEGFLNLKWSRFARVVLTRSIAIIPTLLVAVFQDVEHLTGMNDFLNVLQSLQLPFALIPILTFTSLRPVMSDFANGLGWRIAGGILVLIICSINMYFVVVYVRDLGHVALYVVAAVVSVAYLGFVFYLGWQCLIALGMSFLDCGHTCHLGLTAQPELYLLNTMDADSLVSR
Chain of human Natural Resistance-Associated Macrophage Protein 2 (hNRAMP2) (human) (P49281 whole entry): as the sequence (P49281 whole entry, looked up) above

For Ammonium Iron(III) Citrate, the VEE infection [1] was “sensitive”, the “reduction in virus binding to iron-treated cells compared to controls” value (Sindbis virus [2]) was ~17 fold and the “NRAMP2 co-precipitation with Sindbis virus” value (Sindbis virus / NRAMP2) was “lost”. The “Sindbis virus binding (streptavidin precipitation, immunoblot)” value (Sindbis virus / NRAMP2) was “attenuated”, the VSV infection [3] was “no effect” and the NRAMP2 expression (hNRAMP2; NRAMP2 over-expressing cells treated with iron (FIG. 7A)) was “decrease”. The NRAMP2 expression (hNRAMP2; U2OS cells, high iron (FIG. 7A)) was “decreased”, the “West Nile virus infection” value (West Nile virus) was “no effect” and the “Ross River virus infection” value (Ross River virus) was “insensitive”.

“Sindbis virus (biotinylated infectious virus particles)” was tested, and the percentage of infected cells on NRAMP2 over-expression [4] was 2 fold.

With `Cl.N` [ammonium chloride] the Sindbis infection (Sindbis virus [5]) was “inhibited infection”.
